Results from the supplement of paper PMC10307832.

Tests used:
Assay in all cases: relative viability (nuclei count vs DMSO), 5 days (fraction); higher = more cells survive
[1] = compound: CC[C@H](Nc1ncnc2[nH]cnc12)c1nc2cccc(F)c2c(=O)n1-c1ccccc1 [Idelalisib] + CC(=O)c1c(C)c2cnc(Nc3ccc(N4CCNCC4)cn3)nc2n(C2CCCC2)c1=O [Palbociclib] (partner 0.5 µM)
Procedure, shortened: (§1)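 Relative viability is defined as nuclei in treated wells over nuclei in vehicle wells. Duplicate plates were run and medians reported. Lung cancer cell lines in 1536-well plates were dosed by pin tool one day after seeding, with one drug or with a fixed anchor-drug dose plus five library-drug doses (not always all listed) in √10 steps, and nuclei were counted after 5 days.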

[2] = compound: Nc1nc2[nH]cc(CCc3ccc(C(=O)N[C@@H](CCC(=O)O)C(=O)O)cc3)c2c(=O)[nH]1 [Pemetrexed] + C[C@]1(O)C[C@@H](c2nc(-c3ccc4ccc(-c5ccccc5)nc4c3)c3c(N)nccn32)C1 [Linsitinib] (partner 1 µM)
Procedure, shortened: as §1

[3] = compound: Nc1nc2[nH]cc(CCc3ccc(C(=O)N[C@@H](CCC(=O)O)C(=O)O)cc3)c2c(=O)[nH]1 [Pemetrexed] + CC(C)C[C@H](NC(=O)[C@H](Cc1ccccc1)NC(=O)c1cnccn1)B(O)O [Bortezomib] (partner 0.002 µM)
Procedure, shortened: as §1

[4] = compound: CC[C@H](Nc1ncnc2[nH]cnc12)c1nc2cccc(F)c2c(=O)n1-c1ccccc1 [Idelalisib]
Procedure, shortened: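 Lung cancer cell lines in 1536-well plates were exposed by pinning to five library-drug doses (not always all listed) √10 apart, following an overnight hold at 37 °C. MetaXpress counted Hoechst-stained nuclei from 4× images taken after 5 days without medium change. Viability is the median ratio of treated-well to vehicle-well nuclei across plates. Plates required control CV below 25% and at least one doubling.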

Cell Line | relative viability ([1]; first compound 0.04 µM) | relative viability ([1]; first compound 0.1265 µM) | relative viability ([1]; first compound 0.4 µM) | relative viability ([1]; first compound 1.265 µM) | relative viability ([1]; first compound 4 µM) | relative viability ([2]; first compound 0.002 µM) | relative viability ([2]; first compound 0.006325 µM) | relative viability ([2]; first compound 0.02 µM) | relative viability ([2]; first compound 0.06325 µM) | relative viability ([2]; first compound 0.2 µM) | relative viability ([3]; first compound 0.002 µM) | relative viability ([3]; first compound 0.006325 µM) | relative viability ([3]; first compound 0.02 µM) | relative viability ([3]; first compound 0.06325 µM) | relative viability ([3]; first compound 0.2 µM) | relative viability ([4]; 0.04 µM) | relative viability ([4]; 0.1265 µM) | relative viability ([4]; 0.4 µM) | relative viability ([4]; 1.265 µM) | relative viability ([4]; 4 µM)
HCC-366 | 0.35 | 0.384 | 0.39 | 0.393 | 0.353 | 0.675 | 0.513 | 0.677 | 0.707 | 0.567 | 0.97 | 1.04 | 1.13 | 1.05 | 0.661 | 1.06 | 0.993 | 0.986 | 0.987 | 0.966
LCLC-97TM1 | 0.247 | 0.248 | 0.179 | 0.239 | 0.158 | 0.151 | 0.152 | 0.184 | 0.133 | 0.174 | 0.523 | 1.08 | 0.679 | 0.32 | 0.131 | 1.17 | 0.92 | 0.777 | 1.09 | 0.911
EMC-BAC-2 | 0.546 | 0.502 | 0.489 | 0.522 | 0.482 | 0.541 | 0.778 | 0.794 | 0.826 | 0.844 | 0.993 | 0.922 | 1.11 | 1.06 | 1.04 | 1.25 | 0.989 | 0.878 | 1.01 | 1.11
NCI-H441 | 0.231 | 0.155 | – | 0.23 | 0.182 | 0.553 | 0.572 | 0.454 | 0.414 | 0.269 | 0.572 | 0.602 | 0.914 | 0.825 | 0.389 | 1.13 | 0.941 | – | 1.12 | 1.05
LCLC-103H | 0.515 | 0.421 | 0.472 | 0.472 | 0.451 | 1.07 | 1.03 | 1.14 | 1.16 | 0.992 | 1.08 | 1.01 | 1 | 1.23 | 1.02 | 1.12 | 0.979 | 0.822 | 1.09 | 0.91
HOP-62 | 0.441 | 0.468 | 0.411 | 0.468 | 0.328 | 0.903 | 0.788 | 0.959 | 0.671 | 0.922 | 0.741 | 0.862 | 0.617 | 0.722 | 0.668 | 1.07 | 0.998 | 0.936 | 1.14 | 0.963
NCI-H1355 | 0.415 | 0.407 | 0.333 | 0.364 | 0.312 | 0.8 | 0.801 | 0.824 | 0.881 | 0.72 | 0.952 | 1.33 | 1.21 | 1.21 | 1.15 | 1.03 | 1 | 0.871 | 0.961 | 0.861
COR-L23 | 0.314 | 0.299 | 0.239 | 0.315 | 0.281 | 0.839 | 0.863 | 1.04 | 0.294 | 0.177 | 0.795 | 0.939 | 0.995 | 0.376 | 0.179 | 1.12 | 1.05 | 0.931 | 1.14 | 0.949
